We go through 15 molecules from ChEMBL document CHEMBL5625220, “Discovery of anti-neuroinflammatory agents from 1,4,5,6-tetrahydrobenzo[2,3]oxepino[4,5-d]pyrimidin-2-amine derivatives by regulating microglia polarization” (Eur J Med Chem, 2023).

In series [1] the test system is BV-2. Put plainly: Anti-inflammatory activity in mouse BV-2 cells assessed as inhibition of LPS-induced TNF-alpha production at 5 uM preincubated with LPS for 2 hrs followed by compound addition and measured after 24 hrs by ELISA relative to control. The class given is functional. A general note: An ELISA detects its analyte on a solid surface through an enzyme-linked reagent.

Series [2] in a line: Cytotoxicity against mouse BV-2 cells assessed as survival rate at 5 uM incubated for 24 hrs by CCK8 assay relative to control. The class given is toxicity, cell-based. As to conditions: read-out: Survival. (In general: Formazan colour is commonly taken as a measure of viable cells.)
Series [3] concerns BV-2. Put plainly: Downregulation of PKM2 expression in LPS-stimulated mouse BV-2 cells preincubated with LPS for 2 hrs followed by compound addition and measured after 24 hrs by immunofluorescence staining based confocal microscopic analysis. In kind it is functional, cell-based.
Series [4] relates to BV-2. The series is described as follows: Anti-neuroinflammatory activity in LPS-induced mouse BV-2 cells assessed as increase in CD206 labeled microglial cells preincubated with LPS for 2 hrs followed by compound addition and measured after 24 hrs by flow cytometric analysis. The class given is functional, cell-based.
Series [5] has as its system BV-2. Put plainly: Induction of microglial polarization to M2 phenotype in mouse BV-2 cells assessed as increase in number of M2 phenotype microglial cells incubated for 24 hrs by flow cytometric analysis. The class given is functional, cell-based.
In series [6] the test system is BV-2. The series is described as follows: Anti-neuroinflammatory activity in LPS-induced mouse BV-2 cells assessed as decrease in CD86 labeled microglial cells preincubated with LPS for 2 hrs followed by compound addition and measured after 24 hrs by flow cytometric analysis. The class given is functional, cell-based. For orientation: A flow cytometer gives signals particle by particle.

Series [7] has as its system BV-2. The series is described as follows: Effect on TNF-alpha expression in mouse BV-2 cells incubated for 24 hrs by ELISA. The class given is functional, cell-based.
For series [8], the system named is BV-2. The series is described as follows: Anti-neuroinflammatory activity in LPS-induced mouse BV-2 cells assessed as decrease in IL-18 secretion preincubated with LPS for 2 hrs followed by compound addition and measured after 24 hrs by ELISA. The class given is functional, cell-based.
Series [9] deals with BV-2. The series is described as follows: Effect on IL-1beta expression in mouse BV-2 cells incubated for 24 hrs by ELISA. In kind it is functional, cell-based.
For series [10], the system named is BV-2. The series is described as follows: Effect on ASC expression in mouse BV-2 cells incubated for 24 hrs by Western blot analysis. In kind it is functional, cell-based.
The subject of series [11] is BV-2. The series is described as follows: Anti-neuroinflammatory activity in LPS-induced mouse BV-2 cells assessed as decrease in IL-1beta secretion preincubated with LPS for 2 hrs followed by compound addition and measured after 24 hrs by ELISA. The class given is functional, cell-based.
In series [12] the test system is BV-2. The series is described as follows: Downregulation of PKM2 expression in LPS-stimulated mouse BV-2 cells preincubated with LPS for 2 hrs followed by compound addition and measured after 24 hrs by Western blot analysis. In kind it is functional, cell-based.
In series [13] the test system is BV-2. Put plainly: Effect on caspase-1 expression in mouse BV-2 cells incubated for 24 hrs by Western blot analysis. In kind it is functional, cell-based.
In series [14] the target is NACHT, LRR and PYD domains-containing protein 3 (Mus musculus) (UniProt Q8R4B8). Put plainly: Inhibition of NLRP3 inflammasome formation in LPS-stimulated mouse BV-2 cells assessed as downregulation of NLRP3 protein expression preincubated with LPS for 2 hrs followed by compound addition and measured after 24 hrs by Western blot analysis. In kind it is cell-based.
In series [15] the test system is BV-2. The series is described as follows: Effect on IL-10 expression in mouse BV-2 cells incubated for 24 hrs by ELISA. The class given is functional, cell-based.
For series [16], the target named is NACHT, LRR and PYD domains-containing protein 3 (Mus musculus) (UniProt Q8R4B8). The series is described as follows: Inhibition of NLRP3 inflammasome formation in LPS-stimulated mouse BV-2 cells assessed as downregulation of ASC protein expression preincubated with LPS for 2 hrs followed by compound addition and measured after 24 hrs by Western blot analysis. The class given is cell-based.

For series [17] the target is unchanged. Put plainly: Inhibition of NLRP3 inflammasome formation in LPS-stimulated mouse BV-2 cells assessed as downregulation of caspase-1 protein expression preincubated with LPS for 2 hrs followed by compound addition and measured after 24 hrs by Western blot analysis. The class given is cell-based.
For series [18], the system named is BV-2. The series is described as follows: Anti-neuroinflammatory activity in LPS-induced mouse BV-2 cells assessed as decrease in iNOS labeled microglial cells preincubated with LPS for 2 hrs followed by compound addition and measured after 24 hrs by flow cytometric analysis. In kind it is functional, cell-based.
The test system of series [19] is Mus musculus. Put plainly: Anti-inflammatory activity in cuprizone fed C57BL/6 mouse model assessed as decrease in iNOS expression in corpus callosum at 5 mg/kg, ip pretreated with cuprizone for 6 weeks followed by compound administration for 2 weeks by immunofluorescence staining based confocal microscopic analysis. The class given is functional, organism-based.

Series [20] relates to BV-2. Put plainly: Effect on NLRP3 expression in mouse BV-2 cells incubated for 24 hrs by Western blot analysis. The class given is functional, cell-based.
In series [21] the test system is BV-2. Put plainly: Anti-neuroinflammatory activity in LPS-induced mouse BV-2 cells assessed as increase in IL-10 secretion preincubated with LPS for 2 hrs followed by compound addition and measured after 24 hrs by ELISA. In kind it is functional, cell-based.
Series [22] concerns BV-2. Put plainly: Anti-neuroinflammatory activity in LPS-induced mouse BV-2 cells assessed as decrease in TNF-alpha secretion preincubated with LPS for 2 hrs followed by compound addition and measured after 24 hrs by ELISA. In kind it is functional, cell-based.
The subject of series [23] is BV-2. The series is described as follows: Anti-neuroinflammatory activity in mouse BV-2 cells assessed as microglial polarization into M2 phenotype by measuring decrease in iNOS expression preincubated with LPS for 2 hrs followed by compound addition and measured after 24 hrs by immunofluorescence staining based confocal microscopic analysis. In kind it is functional, cell-based.

The subject of series [24] is BV-2. Put plainly: Induction of microglial polarization to M2 phenotype in mouse BV-2 cells assessed as decrease in number of M1 phenotype microglial cells incubated for 24 hrs by flow cytometric analysis. The class given is functional, cell-based.
For series [25], the system named is BV-2. The series is described as follows: Effect on IL-18 expression in mouse BV-2 cells incubated for 24 hrs by ELISA. In kind it is functional, cell-based.
Series [26] deals with BV-2. The series is described as follows: Anti-neuroinflammatory activity in mouse BV-2 cells assessed as microglial polarization into M2 phenotype by measuring increase in CD206 expression preincubated with LPS for 2 hrs followed by compound addition and measured after 24 hrs by immunofluorescence staining based confocal microscopic analysis. In kind it is functional, cell-based.

The subject of series [27] is Mus musculus. Put plainly: Anti-inflammatory activity in cuprizone fed C57BL/6 mouse model assessed as increase in remyelination in corpus callosum at 5 mg/kg, ip pretreated with cuprizone for 6 weeks followed by compound administration for 2 weeks by LFB staining based analysis. In kind it is functional, organism-based.
Series [28] has as its system Mus musculus. Put plainly: Anti-inflammatory activity in cuprizone fed C57BL/6 mouse model assessed as increase in CD206 expression in corpus callosum at 5 mg/kg, ip pretreated with cuprizone for 6 weeks followed by compound administration for 2 weeks by immunofluorescence staining based confocal microscopic analysis. The class given is functional, organism-based.
Series [29] has as its system BV-2. The series is described as follows: Anti-neuroinflammatory activity in LPS-induced mouse BV-2 cells assessed as increase in Arg-1 labeled microglial cells preincubated with LPS for 2 hrs followed by compound addition and measured after 24 hrs by flow cytometric analysis. The class given is functional, cell-based.

Calls of active or inactive are those of the source. The rule behind the calls is not given here.

NACHT, LRR and PYD domains-containing protein 3 (Mus musculus), sequence (Q8R4B8 whole entry, the tested form may be a part): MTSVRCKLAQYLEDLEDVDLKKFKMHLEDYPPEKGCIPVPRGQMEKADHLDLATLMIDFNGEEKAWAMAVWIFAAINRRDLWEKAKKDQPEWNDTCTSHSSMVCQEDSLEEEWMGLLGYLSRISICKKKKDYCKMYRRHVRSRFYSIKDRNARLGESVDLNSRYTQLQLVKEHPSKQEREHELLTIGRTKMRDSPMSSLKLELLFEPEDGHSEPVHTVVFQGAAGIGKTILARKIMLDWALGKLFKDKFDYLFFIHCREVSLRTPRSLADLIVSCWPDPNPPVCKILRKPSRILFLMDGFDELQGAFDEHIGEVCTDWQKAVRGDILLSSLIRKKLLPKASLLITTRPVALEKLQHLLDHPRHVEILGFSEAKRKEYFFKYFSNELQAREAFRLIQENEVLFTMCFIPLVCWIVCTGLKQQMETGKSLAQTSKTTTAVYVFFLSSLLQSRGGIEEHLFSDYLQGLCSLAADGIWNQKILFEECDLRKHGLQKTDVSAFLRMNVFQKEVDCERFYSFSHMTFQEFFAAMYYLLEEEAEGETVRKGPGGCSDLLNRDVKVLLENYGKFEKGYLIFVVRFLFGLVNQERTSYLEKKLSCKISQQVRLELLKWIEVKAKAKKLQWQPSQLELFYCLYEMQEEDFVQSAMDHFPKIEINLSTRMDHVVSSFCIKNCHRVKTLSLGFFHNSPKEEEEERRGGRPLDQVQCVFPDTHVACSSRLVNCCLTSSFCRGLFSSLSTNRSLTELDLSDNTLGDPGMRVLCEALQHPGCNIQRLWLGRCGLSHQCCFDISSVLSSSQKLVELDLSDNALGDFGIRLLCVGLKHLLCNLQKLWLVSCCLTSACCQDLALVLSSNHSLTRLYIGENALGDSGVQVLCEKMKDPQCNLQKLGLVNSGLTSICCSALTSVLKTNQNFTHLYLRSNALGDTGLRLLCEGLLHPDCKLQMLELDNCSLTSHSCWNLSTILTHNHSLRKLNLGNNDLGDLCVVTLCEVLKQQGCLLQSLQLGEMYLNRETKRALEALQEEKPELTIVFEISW

Usually inhibition stands for how much of the control response was suppressed. Turning to `COc1cc(OC)c2c(c1)OCC/C(=C\c1cc(F)cc(F)c1)C2=O`, in series [1], the inhibition at 5 µM was determined as 73.6%. For the same molecule, the viability at 24 h, 5 µM in series [2] was 150%.
On the same counts, the results for `COc1cc(OC)c2c(c1)OCC/C(=C\c1cccc(C(F)(F)F)c1F)C2=O` are 88.7% and 117%.
On to `COc1cc(OC)c2c(c1)OCC/C(=C\c1cc(F)ccc1F)C2=O`, for which the inhibition at 5 µM in [1] was found to be 74.1%. In addition, the viability at 24 h, 5 µM in [2] is 168%.
With `COc1cc(OC)c2c(c1)OCC/C(=C\c1c(F)cccc1C(F)(F)F)C2=O`, the inhibition at 5 µM in [1] worked out at 36.8%. In addition, in [2], the viability at 24 h, 5 µM came out at 116%.
On the same counts, the results for `COc1cc(OC)c2c(c1)OCCC1=C2NC(N)=NC1c1cc(F)ccc1F` (configuration not stated) are 73.5% and 156%.
Regarding `COc1cc(OC)c2c(c1)OCCC1=C2NC(N)=NC1c1cccc(C(F)(F)F)c1F` (configuration not stated), in series [1], the inhibition at 5 µM was 91.5%. For the same molecule, the viability at 24 h, 5 µM in series [2] was found to be 111%.
The corresponding values for `COc1cc(OC)c2c(c1)OCC/C(=C\c1ccccc1F)C2=O` are 62.1% and 146%.
Regarding `COc1cc(OC)c2c(c1)OCCC1=C2NC(N)=NC1c1ccc(C(F)(F)F)cc1` (configuration not stated), in [1], the inhibition at 5 µM is 72.1%. Besides, in series [2], the viability at 24 h, 5 µM came to 150%.
For `COc1cc(OC)c2c(c1)OCCC1=C2NC(N)=NC1c1ccc(F)cc1` (configuration not stated), the inhibition at 5 µM in series [1] was 56.8%. For the same molecule, the viability at 24 h, 5 µM in series [2] turned out to be 157%.
For `COc1cc(OC)c2c(c1)OCCC1=C2NC(N)=NC1c1cccc(F)c1` (configuration not stated), the inhibition at 5 µM in [1] was 74.3%. The viability at 24 h, 5 µM in [2] worked out at 120%.
In the case of `COc1cc(OC)c2c(c1)OCCC1=C2NC(N)=NC1c1ccc(F)cc1C(F)(F)F` (configuration not stated), the inhibition at 5 µM in [1] came to 66.4%. Moreover, the viability at 24 h, 5 µM in [2] is 87.4%.
On the same counts, the results for `COc1cc(OC)c2c(c1)OCC/C(=C\c1ccc(F)cc1C(F)(F)F)C2=O` are 69.5% and 114%.
Turning to `COc1cc(OC)c2c(c1)OCC/C(=C\c1ccc(F)cc1)C2=O`, the inhibition at 5 µM in [1] amounted to 46.3%. In addition, the viability at 24 h, 5 µM in series [2] was determined as 148%.
Take `COc1cc(OC)c2c(c1)OCCC1=C2NC(N)=NC1c1cc(C(F)(F)F)cc(C(F)(F)F)c1` (configuration not stated): the result in [3], in [4], in [5], in series [6], in series [8] and in series [11] was Active. Besides, the outcome in series [12], in series [18], in series [19], in series [21], in series [22] and in [23] was Active. Moreover, the result in series [26], in series [27], in series [28] and in series [29] was Active. Besides, the outcome in series [7], in series [9], in [10], in [13], in series [15] and in series [20] was inactive. Besides, the outcome in [24] and in series [25] was inactive. The inhibition at 5 µM in [1] came out at 94.5%. In addition, the inhibition entry in series [14], in series [16] and in series [17] was “Active” each time. For the same molecule, the viability at 24 h, 5 µM in [2] came out at 151%.
Consider `COc1cc(OC)c2c(c1)OCC/C(=C\c1cccc(F)c1)C2=O`, for which, in series [1], the inhibition at 5 µM was 69.3%. Also, the viability at 24 h, 5 µM in [2] worked out at 146%.
